Measured values as given in the kinase profiling compilation of Christmann-Franck et al. (2016).

Legend:
Experiment in all cases: radiometric filter-binding kinase assay, Kinase HotSpot
Conditions in all cases: compound 0.5 µM; ATP 10 µM
[1] = target: LTK (human) (UniProt P29376)
[2] = target: MYLK (human) (UniProt Q15746)
[3] = target: IKBKB (human) (UniProt O14920)
[4] = target: EPHA8 (human) (UniProt P29322)
[5] = target: GSG2 (human) (UniProt Q8TF76)
[6] = target: MST1R (human) (UniProt Q04912)
[7] = target: RIPK2 (human) (UniProt O43353)
Chain of RIPK2 (human) (O43353 whole entry, looked up): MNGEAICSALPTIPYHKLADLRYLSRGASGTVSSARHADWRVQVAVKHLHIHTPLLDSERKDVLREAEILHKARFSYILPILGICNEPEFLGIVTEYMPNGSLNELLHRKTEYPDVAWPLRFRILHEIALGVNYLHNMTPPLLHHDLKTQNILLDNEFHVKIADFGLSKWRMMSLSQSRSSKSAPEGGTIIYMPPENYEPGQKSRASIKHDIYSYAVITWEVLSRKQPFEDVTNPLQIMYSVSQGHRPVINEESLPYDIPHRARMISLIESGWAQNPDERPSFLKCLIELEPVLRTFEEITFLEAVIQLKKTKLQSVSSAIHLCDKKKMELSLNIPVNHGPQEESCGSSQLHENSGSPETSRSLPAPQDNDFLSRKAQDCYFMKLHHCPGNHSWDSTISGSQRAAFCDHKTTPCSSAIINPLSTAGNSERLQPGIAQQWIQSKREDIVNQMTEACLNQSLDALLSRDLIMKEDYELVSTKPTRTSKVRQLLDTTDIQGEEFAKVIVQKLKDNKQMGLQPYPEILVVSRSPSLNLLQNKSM

[8] = target: CAMK2A (human) (UniProt Q9UQM7)
[9] = target: MYLK2 (human) (UniProt Q9H1R3)
Chain of MYLK2 (human) (Q9H1R3 whole entry, looked up): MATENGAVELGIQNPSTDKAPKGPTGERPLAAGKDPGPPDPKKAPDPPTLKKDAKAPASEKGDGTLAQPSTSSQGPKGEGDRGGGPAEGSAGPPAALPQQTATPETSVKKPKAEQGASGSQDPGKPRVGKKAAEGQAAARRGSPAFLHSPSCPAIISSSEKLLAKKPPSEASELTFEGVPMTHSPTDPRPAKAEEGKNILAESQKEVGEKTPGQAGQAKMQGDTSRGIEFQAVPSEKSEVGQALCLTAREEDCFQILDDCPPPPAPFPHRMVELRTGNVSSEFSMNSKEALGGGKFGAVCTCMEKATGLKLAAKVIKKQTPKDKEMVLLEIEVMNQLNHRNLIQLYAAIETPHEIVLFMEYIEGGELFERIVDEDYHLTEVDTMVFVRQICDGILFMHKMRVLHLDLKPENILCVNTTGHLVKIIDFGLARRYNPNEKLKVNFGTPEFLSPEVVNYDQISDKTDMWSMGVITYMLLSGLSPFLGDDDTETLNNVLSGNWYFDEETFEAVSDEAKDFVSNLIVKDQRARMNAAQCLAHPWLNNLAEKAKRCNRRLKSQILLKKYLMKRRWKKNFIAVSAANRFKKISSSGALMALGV

[10] = target: BTK (human) (UniProt Q06187)
[11] = target: PTK6 (human) (UniProt Q13882)
[12] = target: ABL1 (human) (UniProt P00519)
[13] = target: AKT3 (human) (UniProt Q9Y243)
[14] = target: CAMK1 (human) (UniProt Q14012)
Chain of CAMK1 (human) (Q14012 whole entry, looked up): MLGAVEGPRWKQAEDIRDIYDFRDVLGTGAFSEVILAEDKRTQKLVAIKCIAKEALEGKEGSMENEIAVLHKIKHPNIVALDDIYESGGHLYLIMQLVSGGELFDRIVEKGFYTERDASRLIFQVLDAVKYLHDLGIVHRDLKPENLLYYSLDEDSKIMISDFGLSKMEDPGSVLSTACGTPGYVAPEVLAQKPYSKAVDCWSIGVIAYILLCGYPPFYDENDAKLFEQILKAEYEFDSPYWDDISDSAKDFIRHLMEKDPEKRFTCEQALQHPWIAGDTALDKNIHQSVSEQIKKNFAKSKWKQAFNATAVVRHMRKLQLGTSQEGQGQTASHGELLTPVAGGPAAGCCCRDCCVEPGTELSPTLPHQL

[15] = target: MET (human) (UniProt P08581)
[16] = target: CAMK4 (human) (UniProt Q16566)
[17] = target: PKN1 (human) (UniProt Q16512)
[18] = target: PRKD1 (human) (UniProt Q15139)
Chain of PRKD1 (human) (Q15139 whole entry, looked up): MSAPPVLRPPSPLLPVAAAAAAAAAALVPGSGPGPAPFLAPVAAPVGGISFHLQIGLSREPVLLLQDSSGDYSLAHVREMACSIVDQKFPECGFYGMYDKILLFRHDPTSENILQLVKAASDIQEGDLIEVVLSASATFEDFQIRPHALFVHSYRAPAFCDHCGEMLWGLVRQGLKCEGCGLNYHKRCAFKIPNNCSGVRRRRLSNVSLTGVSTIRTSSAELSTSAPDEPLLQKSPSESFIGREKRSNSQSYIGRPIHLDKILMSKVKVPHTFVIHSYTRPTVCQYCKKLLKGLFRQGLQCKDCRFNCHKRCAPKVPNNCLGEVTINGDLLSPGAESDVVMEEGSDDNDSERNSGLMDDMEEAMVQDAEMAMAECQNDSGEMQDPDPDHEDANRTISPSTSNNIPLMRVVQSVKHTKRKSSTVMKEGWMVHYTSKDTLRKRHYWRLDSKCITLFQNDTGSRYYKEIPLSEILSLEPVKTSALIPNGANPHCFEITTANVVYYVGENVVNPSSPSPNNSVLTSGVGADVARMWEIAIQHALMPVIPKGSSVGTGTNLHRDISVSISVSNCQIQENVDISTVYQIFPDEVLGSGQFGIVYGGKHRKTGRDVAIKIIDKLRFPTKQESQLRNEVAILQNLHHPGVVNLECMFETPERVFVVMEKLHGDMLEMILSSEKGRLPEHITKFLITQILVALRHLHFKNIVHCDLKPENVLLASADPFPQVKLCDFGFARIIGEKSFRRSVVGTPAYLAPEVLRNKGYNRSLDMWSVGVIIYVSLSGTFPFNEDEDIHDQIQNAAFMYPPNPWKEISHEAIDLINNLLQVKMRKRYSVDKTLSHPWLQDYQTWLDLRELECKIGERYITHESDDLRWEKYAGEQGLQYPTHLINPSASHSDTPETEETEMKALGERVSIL

[19] = target: CHUK (human) (UniProt O15111)
Chain of CHUK (human) (O15111 whole entry, looked up): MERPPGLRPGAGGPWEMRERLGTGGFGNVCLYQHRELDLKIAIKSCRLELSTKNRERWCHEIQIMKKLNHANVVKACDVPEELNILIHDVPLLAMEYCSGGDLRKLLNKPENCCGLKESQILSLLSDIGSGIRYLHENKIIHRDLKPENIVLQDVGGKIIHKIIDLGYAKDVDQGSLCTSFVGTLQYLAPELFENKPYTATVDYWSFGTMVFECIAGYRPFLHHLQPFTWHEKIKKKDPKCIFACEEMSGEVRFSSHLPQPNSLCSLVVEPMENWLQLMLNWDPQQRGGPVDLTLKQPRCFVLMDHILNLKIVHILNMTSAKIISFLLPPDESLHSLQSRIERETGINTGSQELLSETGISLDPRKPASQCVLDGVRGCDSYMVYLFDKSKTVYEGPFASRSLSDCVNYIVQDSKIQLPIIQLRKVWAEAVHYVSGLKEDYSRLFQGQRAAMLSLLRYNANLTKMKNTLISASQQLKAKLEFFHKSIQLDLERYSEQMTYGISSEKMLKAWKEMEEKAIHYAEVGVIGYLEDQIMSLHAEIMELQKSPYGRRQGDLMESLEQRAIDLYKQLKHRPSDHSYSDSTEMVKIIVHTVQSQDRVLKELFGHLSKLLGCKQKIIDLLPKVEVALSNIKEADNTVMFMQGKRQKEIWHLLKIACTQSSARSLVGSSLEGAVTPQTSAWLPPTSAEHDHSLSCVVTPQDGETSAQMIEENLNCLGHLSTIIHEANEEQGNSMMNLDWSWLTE

[20] = target: PRKX (human) (UniProt P51817)
[21] = target: SRPK1 (human) (UniProt Q96SB4)
[22] = target: TBK1 (human) (UniProt Q9UHD2)
[23] = target: STK3 (human) (UniProt Q13188)
[24] = target: ADRBK1 (human) (UniProt P25098)
[25] = target: CDK7 CCNH MNAT1 (human) (UniProt P50613+P51948+P51946)
[26] = target: INSRR (human) (UniProt P14616)
[27] = target: NTRK1 (human) (UniProt P04629)
[28] = target: MAPK10 (human) (UniProt P53779)
[29] = target: ULK2 (human) (UniProt Q8IYT8)
[30] = target: CSNK1G2 (human) (UniProt P78368)
[31] = target: CDK1 CCNA2 (human) (UniProt P06493+P20248)
[32] = target: MAP3K3 (human) (UniProt Q99759)
[33] = target: MAPK3 (human) (UniProt P27361)
Chain of MAPK3 (human) (P27361 whole entry, looked up): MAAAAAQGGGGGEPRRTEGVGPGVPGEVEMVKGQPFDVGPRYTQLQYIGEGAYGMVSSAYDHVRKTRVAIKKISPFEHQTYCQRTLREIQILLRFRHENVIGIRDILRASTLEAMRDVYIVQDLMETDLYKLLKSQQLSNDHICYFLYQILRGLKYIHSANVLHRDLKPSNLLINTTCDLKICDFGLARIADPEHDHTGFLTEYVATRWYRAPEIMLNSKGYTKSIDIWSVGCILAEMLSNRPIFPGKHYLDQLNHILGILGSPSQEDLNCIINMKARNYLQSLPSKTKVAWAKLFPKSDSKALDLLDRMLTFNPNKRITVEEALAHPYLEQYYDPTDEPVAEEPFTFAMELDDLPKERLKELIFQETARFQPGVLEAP

[34] = target: PAK2 (human) (UniProt Q13177)
[35] = target: DYRK4 (human) (UniProt Q9NR20)
[36] = target: ABL2 (human) (UniProt P42684)
[37] = target: GSK3A (human) (UniProt P49840)
[38] = target: NTRK3 (human) (UniProt Q16288)
[39] = target: MATK (human) (UniProt P42679)
[40] = target: STK25 (human) (UniProt O00506)
Chain of STK25 (human) (O00506 whole entry, looked up): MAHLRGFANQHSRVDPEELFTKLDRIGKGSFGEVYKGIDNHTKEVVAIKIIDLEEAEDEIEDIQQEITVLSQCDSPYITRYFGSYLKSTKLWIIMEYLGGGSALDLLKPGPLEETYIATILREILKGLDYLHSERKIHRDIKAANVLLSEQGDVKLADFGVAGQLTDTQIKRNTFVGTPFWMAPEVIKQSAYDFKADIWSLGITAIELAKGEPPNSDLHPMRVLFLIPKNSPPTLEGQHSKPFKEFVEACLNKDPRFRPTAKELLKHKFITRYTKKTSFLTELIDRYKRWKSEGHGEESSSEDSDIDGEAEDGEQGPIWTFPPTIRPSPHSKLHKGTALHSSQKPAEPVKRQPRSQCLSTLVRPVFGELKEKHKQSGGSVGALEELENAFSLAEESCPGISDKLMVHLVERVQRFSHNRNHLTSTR

[41] = target: CDK2 CCNE1 (human) (UniProt P24941+P24864)
[42] = target: CDK2 CCNA2 (human) (UniProt P24941+P20248)

Chain of EPHA8 (human) (P29322 whole entry, looked up): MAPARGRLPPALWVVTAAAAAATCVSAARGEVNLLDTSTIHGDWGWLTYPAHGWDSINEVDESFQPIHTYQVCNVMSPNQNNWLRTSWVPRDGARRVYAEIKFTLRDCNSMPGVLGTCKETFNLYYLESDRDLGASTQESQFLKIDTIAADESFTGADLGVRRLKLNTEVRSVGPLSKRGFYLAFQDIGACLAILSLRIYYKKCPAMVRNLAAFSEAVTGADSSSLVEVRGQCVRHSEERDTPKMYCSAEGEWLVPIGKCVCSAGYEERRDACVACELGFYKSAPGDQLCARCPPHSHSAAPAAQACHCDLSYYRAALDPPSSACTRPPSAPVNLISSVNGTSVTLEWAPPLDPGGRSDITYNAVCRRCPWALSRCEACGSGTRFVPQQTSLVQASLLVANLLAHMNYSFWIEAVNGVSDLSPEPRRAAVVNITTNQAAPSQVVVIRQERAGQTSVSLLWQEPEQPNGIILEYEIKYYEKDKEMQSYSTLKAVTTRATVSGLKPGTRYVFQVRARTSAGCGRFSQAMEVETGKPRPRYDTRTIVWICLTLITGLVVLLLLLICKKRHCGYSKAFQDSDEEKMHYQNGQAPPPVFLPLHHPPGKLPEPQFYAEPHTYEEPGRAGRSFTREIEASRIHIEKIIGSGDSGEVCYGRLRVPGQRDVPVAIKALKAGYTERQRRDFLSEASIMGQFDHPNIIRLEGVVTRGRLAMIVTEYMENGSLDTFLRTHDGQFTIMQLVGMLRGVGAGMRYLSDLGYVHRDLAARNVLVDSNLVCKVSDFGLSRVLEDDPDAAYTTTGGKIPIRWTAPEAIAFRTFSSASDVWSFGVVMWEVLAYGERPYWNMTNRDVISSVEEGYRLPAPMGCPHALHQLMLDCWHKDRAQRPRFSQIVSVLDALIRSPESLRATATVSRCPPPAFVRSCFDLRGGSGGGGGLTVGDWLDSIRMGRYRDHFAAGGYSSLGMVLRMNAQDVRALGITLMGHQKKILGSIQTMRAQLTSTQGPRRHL

Question: For `N/C(=N\N=C/c1ccc(-c2cccc([N+](=O)[O-])c2)o1)N[N+](=O)[O-]`, which residual activity [1] is on record?
Answer: 102%

Question: And the residual activity [2]?
Answer: 92.5%

Question: And the residual activity [3]?
Answer: 86%

Question: What about the residual activity [4] of the same molecule?
Answer: 102%

Question: And the residual activity [5]?
Answer: 89.1%

Question: What about the residual activity [6] of the same molecule?
Answer: 97.6%

Question: And the residual activity [7]?
Answer: 106%

Question: What about the residual activity [8] of the same molecule?
Answer: 100%

Question: What about the residual activity [9] of the same molecule?
Answer: 100%

Question: And the residual activity [10]?
Answer: 110%

Question: What about the residual activity [11] of the same molecule?
Answer: 101%

Question: What about the residual activity [12] of the same molecule?
Answer: 101%

Question: And the residual activity [13]?
Answer: 94.3%

Question: And the residual activity [14]?
Answer: 106%

Question: What about the residual activity [15] of the same molecule?
Answer: 96.3%

Question: And the residual activity [16]?
Answer: 95.2%

Question: What about the residual activity [17] of the same molecule?
Answer: 93.9%

Question: And the residual activity [18]?
Answer: 103%

Question: What about the residual activity [19] of the same molecule?
Answer: 88.1%

Question: What about the residual activity [20] of the same molecule?
Answer: 97.8%

Question: What about the residual activity [21] of the same molecule?
Answer: 94.9%

Question: What about the residual activity [22] of the same molecule?
Answer: 104%

Question: And the residual activity [23]?
Answer: 100%

Question: What about the residual activity [24] of the same molecule?
Answer: 98.9%

Question: What about the residual activity [25] of the same molecule?
Answer: 100%

Question: And the residual activity [26]?
Answer: 99.2%

Question: What about the residual activity [27] of the same molecule?
Answer: 96%

Question: And the residual activity [28]?
Answer: 87%

Question: And the residual activity [29]?
Answer: 87.3%

Question: And the residual activity [30]?
Answer: 101%

Question: And the residual activity [31]?
Answer: 100%

Question: And the residual activity [32]?
Answer: 93.8%

Question: What about the residual activity [33] of the same molecule?
Answer: 88.4%

Question: What about the residual activity [34] of the same molecule?
Answer: 103%

Question: What about the residual activity [35] of the same molecule?
Answer: 92.7%

Question: And the residual activity [36]?
Answer: 95.7%

Question: What about the residual activity [37] of the same molecule?
Answer: 108%

Question: What about the residual activity [38] of the same molecule?
Answer: 104%

Question: What about the residual activity [39] of the same molecule?
Answer: 94.3%

Question: And the residual activity [40]?
Answer: 86.3%

Question: Which residual activity [1] does the source give for `N#CCCc1ccc2c(c1)-c1[nH]c3ccc([N+](=O)[O-])cc3c1CC(=O)N2` here?
Answer: 80%

Question: What about the residual activity [2] of the same molecule?
Answer: 95.2%

Question: And the residual activity [3]?
Answer: 96.3%

Question: What about the residual activity [4] of the same molecule?
Answer: 105%

Question: And the residual activity [5]?
Answer: 110%

Question: What about the residual activity [6] of the same molecule?
Answer: 107%

Question: And the residual activity [7]?
Answer: 21.5%

Question: And the residual activity [8]?
Answer: 69.1%

Question: And the residual activity [9]?
Answer: 93.9%

Question: And the residual activity [41]?
Answer: 13.4%

Question: And the residual activity [10]?
Answer: 94.6%

Question: And the residual activity [11]?
Answer: 94.6%

Question: What about the residual activity [12] of the same molecule?
Answer: 47.8%

Question: And the residual activity [13]?
Answer: 95.5%

Question: What about the residual activity [14] of the same molecule?
Answer: 96%

Question: And the residual activity [15]?
Answer: 119%

Question: And the residual activity [16]?
Answer: 98.4%

Question: And the residual activity [17]?
Answer: 78%

Question: What about the residual activity [18] of the same molecule?
Answer: 87.5%

Question: What about the residual activity [19] of the same molecule?
Answer: 105%

Question: And the residual activity [20]?
Answer: 78.4%

Question: What about the residual activity [21] of the same molecule?
Answer: 107%

Question: What about the residual activity [22] of the same molecule?
Answer: 83.7%

Question: And the residual activity [23]?
Answer: 40.9%

Question: What about the residual activity [24] of the same molecule?
Answer: 96.4%

Question: And the residual activity [26]?
Answer: 99.2%

Question: What about the residual activity [27] of the same molecule?
Answer: 115%

Question: And the residual activity [28]?
Answer: 93.3%

Question: And the residual activity [29]?
Answer: 73.1%

Question: And the residual activity [30]?
Answer: 84.8%

Question: What about the residual activity [31] of the same molecule?
Answer: 24.8%

Question: And the residual activity [32]?
Answer: 83.3%

Question: What about the residual activity [33] of the same molecule?
Answer: 95.1%

Question: And the residual activity [34]?
Answer: 55.6%

Question: What about the residual activity [35] of the same molecule?
Answer: 100%

Question: And the residual activity [36]?
Answer: 49.8%

Question: And the residual activity [37]?
Answer: 0.804%

Question: What about the residual activity [38] of the same molecule?
Answer: 61.2%

Question: And the residual activity [42]?
Answer: 2.93%

Question: And the residual activity [39]?
Answer: 101%

Question: And the residual activity [40]?
Answer: 91.1%

Question: What does the source list for `c1ccc(-c2cnc(Nc3ccc(OCCN4CCCC4)cc3)s2)cc1`?
Answer: residual activity [1]: 93.8%; residual activity [2]: 96.9%; residual activity [3]: 98.1%; residual activity [4]: 96.2%; residual activity [5]: 106%; residual activity [6]: 107%; residual activity [7]: 50.4%; residual activity [8]: 62.9%; residual activity [9]: 28.7%; residual activity [41]: 85.7%; residual activity [10]: 101%; residual activity [11]: 80.8%; residual activity [12]: 63.3%; residual activity [14]: 86.3%; residual activity [15]: 89.7%; residual activity [16]: 97.2%; residual activity [17]: 94.8%; residual activity [18]: 78.4%; residual activity [19]: 93.3%; residual activity [20]: 101%; residual activity [21]: 99.9%; residual activity [22]: 87.1%; residual activity [23]: 108%; residual activity [24]: 95.8%; residual activity [25]: 102%; residual activity [26]: 99.6%; residual activity [27]: 54.1%; residual activity [28]: 92.9%; residual activity [29]: 78.3%; residual activity [30]: 100%; residual activity [31]: 95.2%; residual activity [32]: 99.2%; residual activity [33]: 99.8%; residual activity [34]: 94.8%; residual activity [35]: 99.4%; residual activity [36]: 37.2%; residual activity [37]: 99.2%; residual activity [38]: 22.6%; residual activity [42]: 85.2%; residual activity [39]: 94.3%; residual activity [40]: 95.5%
